This note sets out measurements from patent US20090163525A1, “SUBSTITUTED QUINAZOLINES WITH ANTI-CANCER ACTIVITY” (ASTRAZENECA AB, priority 2006, published 2009).

Chain of Mutant B-Raf (V600E) enzyme (MT B-Raf) (P15056 whole entry V600E): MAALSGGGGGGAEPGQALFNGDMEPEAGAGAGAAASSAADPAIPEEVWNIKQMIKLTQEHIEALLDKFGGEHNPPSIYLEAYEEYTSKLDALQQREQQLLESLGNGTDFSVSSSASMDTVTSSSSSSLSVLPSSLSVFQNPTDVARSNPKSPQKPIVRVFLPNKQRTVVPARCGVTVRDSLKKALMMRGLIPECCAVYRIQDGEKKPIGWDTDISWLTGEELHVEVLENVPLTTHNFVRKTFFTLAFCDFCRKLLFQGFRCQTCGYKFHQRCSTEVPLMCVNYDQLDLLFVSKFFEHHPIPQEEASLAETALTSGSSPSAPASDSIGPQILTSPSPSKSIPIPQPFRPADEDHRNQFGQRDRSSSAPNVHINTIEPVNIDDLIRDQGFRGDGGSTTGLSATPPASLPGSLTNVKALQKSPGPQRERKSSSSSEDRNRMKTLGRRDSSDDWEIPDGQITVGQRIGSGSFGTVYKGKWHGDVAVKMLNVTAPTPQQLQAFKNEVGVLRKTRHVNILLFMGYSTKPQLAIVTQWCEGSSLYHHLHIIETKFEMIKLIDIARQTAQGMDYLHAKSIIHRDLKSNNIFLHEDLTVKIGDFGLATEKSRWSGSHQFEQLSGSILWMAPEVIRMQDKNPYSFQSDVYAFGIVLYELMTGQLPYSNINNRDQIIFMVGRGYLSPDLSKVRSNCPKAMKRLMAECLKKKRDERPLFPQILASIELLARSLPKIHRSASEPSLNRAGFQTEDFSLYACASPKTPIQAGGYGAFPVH

The target in the assay is Mutant B-Raf (V600E) enzyme (MT B-Raf) (Homo sapiens, UniProt P15056, V600E). Description: B-Raf in vitro AlphaScreen assay. The assay is classed as biochemical. The conditions noted are these: phosphorylation of biotinylated HIS-MEK-AVI, 24 μM ATP in mix. The procedure:
B-Raf In-vitro AlphaScreen Assay
MT B-Raf was expressed in insect cells and affinity purified by Ni^+2 agarose followed by Q-Sepharose chromatography. Typical yield was 1.08 mg/ml at >90% purity.
The phosphorylation of the MT B-Raf substrate in the presence and absence of the compound of interest was determined. Briefly, 5 μl of enzyme/substrate/adenosine triphosphate (ATP) mix consisting of 0.12 nM MT B-Raf, 84 nM biotinylated HIS-MEK-AVI, and 24 μM ATP in 1.2× buffer was preincubated with 2 μl of compound for 20 minutes at 25° C. Reactions were initiated with 5 μl of Metal mix consisting of 24 mM MgCl2 in 1.2× buffer and incubated at 25° C. for 60 minutes and reactions were stopped by addition of 5 μl of Detection mix consisting of 20 mM HEPES, 102 mM ethylenediamine tetraacetic acid, 1.65 mg/ml BSA, 136 mM NaCl, 3.4 nM Phospho-MEK1/2 (Ser217/221) antibody (Catalog #9121, Cell Signaling Technology, Mass.), 40 μg/ml Streptavidin donor beads (Perkin Elmer, Mass., Catalog #6760002), and 40 μg/ml Protein A acceptor beads (Perkin Elmer, Mass., Catalog #6760137). Plates were incubated at 25° C. for 18 hours in the dark. Phosphorylated substrate was detected by an EnVision plate reader (Perkin Elmer, Mass.) 680 nm excitation, 520-620 nm emission. Data was graphed and IC50s calculated using Excel Fit (Microsoft).
As to `Cc1ccc(NC(=O)Nc2ccc(Cl)c(Cl)c2)cc1Nc1ccc2ncn(C)c(=O)c2c1` [Example 2, N-(3,4-Dichlorophenyl)-N′-{4-methyl-3-[(3-methyl-4-oxo-3,4-dihydroquinazolin-6-yl)amino]phenyl}urea], inhibition was half-maximal at 363 nM (IC50).

`Cc1ccc(NC(=O)Nc2cccc(C(C)(C)C#N)c2)cc1Nc1ccc2ncn(C)c(=O)c2c1` [Example 6, N-[3-(1-Cyano-1-methylethyl)phenyl]-N′-{4-methyl-3-[(3-methyl-4-oxo-3,4-dihydroquinazolin-6-yl)amino]phenyl}urea] came in with an IC50 of 99 nM.

The compound `Cc1ccc(NC(=O)Nc2cccc(C(F)(F)F)c2)cc1Nc1ccc2ncn(C)c(=O)c2c1` [Example 1, N-{4-Methyl-3-[(3-methyl-4-oxo-3,4-dihydroquinazolin-6-yl)amino]phenyl}-N-′[3-(trifluoromethyl)phenyl]urea] returned a half-inhibitory concentration (IC50) of 14.3 nM.
